Measured values reported in publication PMC11882793 (Nature Communications, 2025).
pKd: −log10 of the molar value. No end group written: not given here. *: point of attachment. FITC = O=C1OC2(c3ccc(O)cc3Oc3cc(O)ccc32)c2ccc(NC(=S)*)cc21

Assays:
LarA-NTD complex = assay: Fluorescence polarization, FITC-labeled degron peptides vs LarA-NTD complex; format: binding, C. crescentus; settings: FP assay
NTD of CcLon (aa. 1-206) = molecular target: T1, NTD of CcLon (aa. 1-206) (Caulobacter vibrioides, UniProt P0CAW0); assay: Fluorescence polarization, FITC-labeled degron peptides vs NTD; format: binding, C. crescentus; settings: FP assay
T1 sequence (P0CAW0 1-206): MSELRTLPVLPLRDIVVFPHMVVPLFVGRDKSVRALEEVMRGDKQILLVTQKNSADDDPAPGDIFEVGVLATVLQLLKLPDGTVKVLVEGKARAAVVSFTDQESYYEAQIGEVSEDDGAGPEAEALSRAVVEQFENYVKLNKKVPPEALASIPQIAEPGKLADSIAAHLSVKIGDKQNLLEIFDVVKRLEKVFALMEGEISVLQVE

[1] = molecular target: FITC-labeled peptide derived from the wild-type C-terminal sequence of SciP (C. crescentus); assay: fluorescence polarisation

Substance	FP binding to LarA-NTD complex (in words) (LarA-NTD complex)	FP binding to NTD (in words) (NTD of CcLon (aa. 1-206))	pKd [1]
{FITC}-QSADRHGAAGARTTRAQQYR [pep-SciP-mut]	failed to bind	failed to bind	
{FITC}-HEAAPASAH [pep-LarA-mut]	failed to bind	failed to bind	
{FITC}-HELAPVSVH [pep-LarA-amidated]	comparable to that of pep-LarA	no binding was observed	
LarA-NTD complex (from UniProt P0CAW0 1-206)			3.38
